In patent US4360511A, “Amines useful as brain imaging agents” (Medi-Physics, Inc., priority 1980, dated 1982):
Like-named read-outs stand apart in the source and are kept apart here.

Test: Bioassay: distribution of I-123-labeled compounds in organs of rats after tail vein injection (percent dose/gram, brain/blood ratio)
Type: in vivo, Female Sprague-Dawley rats
Conditions: for Brain/Blood Ratio 5 min. / tissue uptake at 5 min: 5 minutes post-injection; for Brain/Blood Ratio 60 min. / tissue uptake at 1 h: 60 minutes post-injection; for tissue uptake at 5 min / tissue uptake at 1 h: rat, iv, 0.05 to 1.0 mCi, two rats
Procedure: Female Sprague-Dawley rats weighing approximately 150 g were anesthetized with sodium pentobarbital and were injected in a tail vein with from 0.05 to 1.0 mCi (in a volume of 0.2 to 0.5 ml) of the I-123-labeled compound. Two specimens were utilized for each test.
Two animals each were sacrificed at 5 minutes and 60 minutes post-injection, the tails discarded and the amount of activity in various organs determined. Each organ was counted at a standardized geometry with a sodium iodide crystal scintillation counter adjusted for the 159 keV emission of I-123. The organs were also weighed to one thousandth of a gram and the activity calculated as a percent of administered dose per gram of organ weight.
The ratio of brain-to-blood activity was calculated as a percent of administered dose per gram.

[1] = blood, read-out: Percent Dose/Gram Blood 5 min.
[2] = blood, read-out: Percent Dose/Gram Blood 60 min.
[3] = brain, read-out: Percent Dose/Gram Brain 5 min.
[4] = brain, read-out: Percent Dose/Gram Brain 60 min.
[5] = heart, read-out: Percent Dose/Gram Heart 5 min.
[6] = heart, read-out: Percent Dose/Gram Heart 60 min.

Structure (SMILES)	Brain/Blood Ratio 5 min.	Brain/Blood Ratio 60 min.	tissue uptake at 5 min [1] [%ID/g]	tissue uptake at 1 h [2] [%ID/g]	tissue uptake at 5 min [3] [%ID/g]	tissue uptake at 1 h [4] [%ID/g]	tissue uptake at 5 min [5] [%ID/g]	tissue uptake at 1 h [6] [%ID/g]
CCN(Cc1ccccc1I)Cc1ccccc1[123I] [I--123-N,N--di-o-iodobenzylethylamine]	0.68	0.88	0.52	0.28	0.36	0.25	2.11	0.5
CC(C)N[C@@H](C)Cc1ccc([123I])cc1 [I--123-S--N--isopropyl-p-iodoamphetamine, I-123-S-N-isopropyl-p-iodoamphetamine]	12.80	15.40	0.11	0.13	1.32	1.93	1.28	0.85
Nc1ccc([123I])cc1 [I--123-p-iodoaniline]	1.12	1.00	0.97	0.8	1.09	0.8	1.11	0.8
CCCNCc1ccccc1[123I] [I--123-N--propyl-o-iodobenzylamine]	3.81	1.84	0.27	0.32	1.03	0.59	0.77	0.59
CC(Cc1ccccc1)NCCc1ccccc1[123I] (racemic) [I--123-N--o-iodo-β-phenethylamphetamine (dl)]	7.13	7.86	0.12	0.11	0.82	0.83	2.02	0.48
CC(C)NCc1cccc([123I])c1 [I--123-N--isopropyl-m-iodobenzylamine]	7.35	4.16	0.22	0.21	1.61	0.85	0.99	0.46
[123I]c1ccccc1NCCc1ccccc1 [I--123-N--β-phenethyl-o-iodoaniline]	1.24	0.33	1.04	0.48	1.29	0.16	1.16	0.33
CC(C)(C)NCc1ccccc1[123I] [I--123-N--t-butyl-o-iodobenzylamine, I-123-N-t-butyl-o-iodobenzylamine]	8.85	8.16	0.17	0.11	1.49	0.89	1.04	0.49
Nc1ccccc1[123I] [I--123-o-iodoaniline]	0.28	0.07	1.7	0.44	0.47	0.03	1.02	0.17
[123I]c1ccccc1CCNCCc1ccccc1 [I--123-N--β-phenethyl-o-iodo-β-phenethylamine]	4.77	5.17	0.16	0.09	0.74	0.48	1.56	0.26
[123I]c1ccccc1NCc1ccccc1 [I--123-N--benzyl-o-iodoaniline]	2.23	0.80	0.3	0.36	0.67	0.29	0.34	1.25
CC(C)NCCc1ccccc1[123I] [I--123-N--isopropyl-o-iodo-β-phenethylamine]	8.58	5.83	0.12	0.12	1.03	0.67	0.88	0.27
CC(C)N[C@H](C)Cc1ccc([123I])cc1 [I--123-R--N--isopropyl-p-iodoamphetamine, I-123-R-N-isopropyl-p-iodoamphetamine]	12.60	20.70	0.14	0.11	1.57	2.14	1.78	0.87
CNCCc1ccccc1[123I] [I--123-N--methyl-o-iodo-β-phenethylamine]	0.49	–	1.16	–	0.57	–	1.07	–
[123I]c1ccccc1CNc1ccccc1 [I--123-N--o-iodobenzylaniline]	1.70	0.41	0.61	0.41	1.02	0.17	0.83	0.31
CCCNCCc1ccccc1[123I] [I--123-N--propyl-o-iodo-β-phenethylamine]	4.03	2.20	0.29	0.2	1.17	0.44	1.54	0.23
[123I]c1ccccc1CN(CCc1ccccc1)CCc1ccccc1 [I--123-N,N--di-β-phenethyl-o-iodobenzylamine]	1.03	–	1.03	–	1.06	–	3.61	–
NC(=O)C(Nc1ccc([123I])cc1)c1ccccc1 (stereo not drawn) [I--123-α-(p-iodoanilino)phenylacetamide]	1.30	–	0.71	–	0.92	–	1.42	–
[123I]c1ccccc1CCN(CCc1ccccc1)CCc1ccccc1 [I--123-N,N--di-β-phenethyl-o-iodo-β-phenethylamine]	0.24	0.17	0.83	0.65	0.2	0.11	1.18	0.62
CC(Cc1ccccc1)NCc1ccccc1[123I] (racemic) [I--123-N--o-iodobenzylamphetamine (dl)]	3.93	1.89	0.27	0.19	1.06	0.36	0.72	0.37
CC(Cc1ccccc1)Nc1ccccc1[123I] (racemic) [I--123-N--(o-iodophenyl)amphetamine (dl)]	1.81	0.75	0.53	0.55	0.96	0.41	1.64	0.57
N#CC(Nc1ccccc1)c1ccccc1[123I] (stereo not drawn) [I--123-α-anilino-o-iodophenylacetonitrile]	4.68	1.41	0.17	0.1	0.8	0.14	0.9	0.24
CC(C)Nc1ccc([123I])cc1 [I--123-N--isopropyl-p-iodoaniline]	2.55	0.33	0.48	0.79	1.23	0.26	1.01	0.61
CC1CCCC(C)N1Cc1ccccc1[123I] (stereo not drawn) [I--123-N--o-iodobenzyl-2,6-dimethylpiperidine]	3.32	1.59	0.31	0.21	1.01	0.32	1.14	0.44
[123I]c1ccccc1CCN1CCCCC1 [I--123-N--o-iodo-β-phenethylpiperidine]	2.35	–	0.46	–	1.08	–	1.68	–
CC(C)NCc1ccccc1[123I] [I--123-N--isopropyl-o-iodobenzylamine, I-123-N-isopropyl-o-iodobenzylamine]	7.63	1.04	0.16	0.62	1.21	0.64	0.72	0.47
